Reference: PMC3783656 (Bioorganic & medicinal chemistry letters, 2013)
Values after ≈ are worked out from the molar mass of the structure shown. Like-named read-outs stand apart in the source and are kept apart here. Each block holds one compound with its values, some of them ahead of it.

What was measured:
[1] = test system: CK1; conditions: cited from earlier work
[2] = biological target: T1, CK1δ (Homo sapiens, UniProt P48730); assay: CK1δ inhibition, Reaction Biology Corp.; assay type: biochemical; conditions: for IC50: read-out: IC50 CK1δ
[3] = biological target: CK1ε (Homo sapiens, UniProt P49674); assay: CK1ε inhibition, Reaction Biology Corporation; assay type: biochemical
[4] = test system: human melanoma A375 cell line; assay: MTT assay against A375 melanoma cells; assay type: cell-based
[5] = test system: CK1; conditions: cited from earlier work; remark: listed apart in the source
[6] = test system: 442 kinases; assay: DiscoverRX KINOMEscan analysis of 442 kinases; assay type: binding; conditions: 10 μM, KINOMEscan of 442 kinases
[7] = Solubility in PBS buffer; assay type: physicochemical
[8] = biological target: T1, CK1δ; assay: CK1δ inhibition, in-house kinase inhibition assay; assay type: biochemical; conditions: read-out: IC50 CK1δ
[9] = Mouse PK studies; assay type: in vivo; conditions: IV dosing, 1 mg/kg, 10/10/80 DMSO/Tween/water
[10] = biological target: cytochrome P450 1A2 (Homo sapiens, UniProt P05177); assay: Cyp assay, 1A2; assay type: in vitro ADME; conditions: at 10 μM
[11] = Microsome stability, mouse liver microsomes
[12] = Microsome stability, human liver microsomes
[13] = Solubility in DMEM/10% FBS; assay type: physicochemical
[14] = Microsome stability, rat liver microsomes
[15] = read-out: MTT assay A375 EC50, human A375 melanoma cell line
[16] = data obtained by Reaction Biology Corp.

T1 sequence (P48730 whole entry): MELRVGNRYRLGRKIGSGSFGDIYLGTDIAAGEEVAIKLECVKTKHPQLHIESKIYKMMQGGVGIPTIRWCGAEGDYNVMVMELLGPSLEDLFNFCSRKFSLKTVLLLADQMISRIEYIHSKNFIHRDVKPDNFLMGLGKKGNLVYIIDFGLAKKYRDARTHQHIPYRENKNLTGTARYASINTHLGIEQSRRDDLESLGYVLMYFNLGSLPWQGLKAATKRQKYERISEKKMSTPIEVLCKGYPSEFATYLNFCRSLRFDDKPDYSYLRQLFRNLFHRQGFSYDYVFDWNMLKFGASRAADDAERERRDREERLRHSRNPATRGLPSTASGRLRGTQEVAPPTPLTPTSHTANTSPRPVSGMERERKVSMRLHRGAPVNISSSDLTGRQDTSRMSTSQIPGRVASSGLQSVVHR
Sequence of CK1ε (P49674 whole entry): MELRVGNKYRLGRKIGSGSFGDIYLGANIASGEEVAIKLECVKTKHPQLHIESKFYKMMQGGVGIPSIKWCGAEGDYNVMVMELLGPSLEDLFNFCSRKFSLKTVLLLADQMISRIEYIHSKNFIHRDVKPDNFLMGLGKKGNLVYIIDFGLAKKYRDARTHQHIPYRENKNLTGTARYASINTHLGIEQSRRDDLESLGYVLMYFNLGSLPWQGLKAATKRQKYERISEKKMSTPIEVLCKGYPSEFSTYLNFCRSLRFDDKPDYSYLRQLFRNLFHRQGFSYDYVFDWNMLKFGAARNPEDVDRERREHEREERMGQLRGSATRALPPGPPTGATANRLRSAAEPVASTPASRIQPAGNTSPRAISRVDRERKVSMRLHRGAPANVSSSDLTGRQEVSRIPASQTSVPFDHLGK
Sequence of cytochrome P450 1A2 (P05177 whole entry, species assumed): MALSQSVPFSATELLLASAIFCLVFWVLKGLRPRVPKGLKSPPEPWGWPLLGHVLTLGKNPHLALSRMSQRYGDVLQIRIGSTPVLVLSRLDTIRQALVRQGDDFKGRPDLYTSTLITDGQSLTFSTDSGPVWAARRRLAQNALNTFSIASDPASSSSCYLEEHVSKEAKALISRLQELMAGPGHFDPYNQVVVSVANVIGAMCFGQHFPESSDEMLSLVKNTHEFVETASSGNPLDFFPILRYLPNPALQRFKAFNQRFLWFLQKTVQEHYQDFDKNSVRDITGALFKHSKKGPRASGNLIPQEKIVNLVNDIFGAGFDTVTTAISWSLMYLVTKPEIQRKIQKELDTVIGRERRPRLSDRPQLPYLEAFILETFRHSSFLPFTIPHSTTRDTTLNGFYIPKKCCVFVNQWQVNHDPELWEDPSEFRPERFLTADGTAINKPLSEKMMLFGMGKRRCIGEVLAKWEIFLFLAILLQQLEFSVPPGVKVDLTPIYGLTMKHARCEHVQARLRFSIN

Compound: CC[C@H](CO)Nc1nc(Nc2cccc(-c3ccccn3)c2)c2ncn(C(C)C)c2n1 [(R)-DRF053]
IC50 ([1]; read-out: CK1 inhibition, dual CK1/CDK inhibitor): 14 nM

Activity against CK1δ [2]: inactive | Activity against CK1ε [3]: inactive | EC50 ([4]; Homo sapiens, A-375, read-out: MTT assay A375 EC50): 1570 nM
Compound: CC(C)(C)c1cc(NC(=O)Nc2ccc(-c3cn4c(n3)sc3cc(OCCN5CCOCC5)ccc34)cc2)no1 [AC220, reference compound]

EC50 [4, 15]: 2300 nM
Compound: O=C(Nc1nc2ccc(C(F)(F)F)cc2[nH]1)c1csc(NC(=O)c2ccccc2OC(F)(F)F)n1 [Bischof-5, reference compound]

Compound: NCCNS(=O)(=O)c1ccc(Cl)c2ccncc12 [CKI-7]
IC50 ([1]; read-out: CK1 inhibition): 6000 nM

Compound: NC(=O)c1ccc(-c2nc(-c3ccc4c(c3)OCCO4)c(-c3ccccn3)[nH]2)cc1 [Compound D4476]
IC50 ([1]; read-out: CK1 inhibition in vitro, in vitro): […] | EC50 [4, 15]: 10000 nM | Activity in cell-based assays ([5]; cell-based assays): 20 to 50 µM

Compound: COc1cc(OC)c(C=C2C(O)=Nc3ccccc32)c(OC)c1 [IC261]
IC50 ([1]; read-out: IC50 for CK1 inhibition in vitro, in vitro): 1000 nM | IC50 ([5]; read-out: IC50 for CK1 inhibition in cells, in cells): 25000 nM

EC50 [4, 15]: > 10000 nM
Compound: Nc1nccc(-c2c(-c3ccc(F)cc3)ncn2C2CCCCC2)n1 [PF-670462, reference compound]
Number of kinases inhibited ≥90% [6]: 44

IC50 [2, 16]: 128 nM
Compound: FC(F)(F)c1cccc2[nH]c(CNc3nc(N4CCOCC4)nc4c3ncn4-c3ccsc3)nc12 [SR-1272]

IC50 [2, 16]: 13 nM
Compound: FC(F)(F)c1ccc2[nH]c(CNc3nc(N4CCOCC4)nc4c3ncn4-c3ccsc3)nc2c1 [SR-1273]

IC50 [2, 16]: 105 nM
Compound: Clc1ccc2[nH]c(CNc3nc(N4CCOCC4)nc4c3ncn4-c3ccsc3)nc2c1 [SR-1274]

IC50 [2, 16]: 50 nM
Compound: Fc1ccc2[nH]c(CNc3nc(N4CCOCC4)nc4c3ncn4-c3ccsc3)nc2c1 [SR-1275]

IC50 [2, 16]: 11 nM
Compound: N#Cc1ccc2[nH]c(CNc3nc(N4CCOCC4)nc4c3ncn4-c3ccsc3)nc2c1 [SR-1276]

IC50 [2, 16]: 21 nM
Compound: O=[N+]([O-])c1ccc2[nH]c(CNc3nc(N4CCOCC4)nc4c3ncn4-c3ccsc3)nc2c1 [SR-1278]

IC50 [2, 16]: 17 nM
Compound: COc1ccc2[nH]c(CNc3nc(N4CCOCC4)nc4c3ncn4-c3ccsc3)nc2c1 [SR-1279]

Solubility [7]: 75 µM (≈ 32.4 µg/mL) | IC50 [2, 16]: 3 nM
Compound: c1ccc2[nH]c(CNc3nc(N4CCNCC4)nc4c3ncn4-c3ccsc3)nc2c1 [SR-1292]

IC50 [2, 16]: 11 nM
Compound: CN1CCN(c2nc(NCc3nc4ccccc4[nH]3)c3ncn(-c4ccsc4)c3n2)CC1 [SR-1294]

IC50 [2, 16]: 19 nM
Compound: O=[N+]([O-])c1cccc2[nH]c(CNc3nc(N4CCOCC4)nc4c3ncn4-c3ccoc3)nc12 [SR-2007]

IC50 [2, 16]: 57 nM
Compound: c1ccc2[nH]c(CNc3nc(N4CCOCC4)nc4c3ncn4C3CCCC3)nc2c1 [SR-2149]

IC50 CK1δ [2, 16]: essentially inactive | IC50 [2, 16]: > 1000 nM
Compound: O=[N+]([O-])c1cccc2[nH]c(CNc3nc(N4CCOCC4)nc4c3ncn4-c3ccc(F)cc3)nc12 [SR-2362]

IC50 [8]: 57 nM
Compound: O=[N+]([O-])c1cccc2[nH]c(CNc3nc(N4CCOCC4)nc4c3ncn4-c3cccc(F)c3)nc12 [SR-2364]

IC50 [8]: 75 nM
Compound: O=[N+]([O-])c1cccc2[nH]c(CNc3nc(N4CCOCC4)nc4c3ncn4-c3cc(F)cc(F)c3)nc12 [SR-2368]

IC50 [2, 16]: 10 nM
Compound: CS(=O)(=O)c1ccc2[nH]c(CNc3nc(N4CCOCC4)nc4c3ncn4-c3ccsc3)nc2c1 [SR-2797]

IC50 [2, 16]: 16 nM
Compound: CS(=O)(=O)c1cccc2[nH]c(CNc3nc(N4CCOCC4)nc4c3ncn4-c3ccsc3)nc12 [SR-2805]

IC50 [2, 16]: 23 nM
Compound: Clc1ccc2[nH]c(CNc3nc(N4CCOCC4)nc4c3ncn4-c3ccoc3)nc2c1 [SR-2850]

Compound: NC1CCN(c2nc(NCc3nc4cc(Cl)ccc4[nH]3)c3ncn(-c4ccsc4)c3n2)CC1 [SR-2875]
IC50 [8]: 119 nM

IC50 [8]: 51 nM | Solubility [7]: 54 µM (≈ 25.2 µg/mL)
Compound: Clc1ccc2[nH]c(CNc3nc(N4CCNCC4)nc4c3ncn4-c3ccsc3)nc2c1 [SR-2876]

IC50 [8]: 199 nM
Compound: CC1CN(c2nc(NCc3nc4ccccc4[nH]3)c3ncn(-c4ccsc4)c3n2)CCN1 (stereo not drawn) [SR-2915]

AUC [9]: 1.75 µM·h | Cl [9]: 2.2 mL/min/kg | Cmax [9]: 3.2 µM | T1/2 [9]: 43.8 min | Inhibition of 1A2 [10]: e 86% Inhibition of 1A2 at 10 μM. | Microsome stability T1/2 (mouse) ([11]; mouse liver microsomes, third value of h/r/m): 1 min | Microsome stability T1/2 (human) ([12]; human liver microsomes, first value of h/r/m): 11 min | IC50 [2, 16]: 160 nM | Solubility [13]: 28 µM (≈ 12.1 µg/mL) | IC50 ([3]; read-out: CK1ε Inh IC50, data obtained by Reaction Biology Corporation): 540 nM | EC50 [4, 15]: 111 nM | Microsome stability T1/2 (rat) ([14]; rat liver microsomes, second value of h/r/m): 6 min
Compound: c1ccc2[nH]c(CNc3nc(N4CCOCC4)nc4c3ncn4-c3ccsc3)nc2c1 [SR-653234]

half-life ([11]; mouse, liver microsomes): 21 min | half-life ([12]; human, liver microsomes): 54 min | half-life ([14]; rat, liver microsomes): 21 min
Compound: CCN(CC)CCNC(=O)c1c(C)[nH]c(/C=C2\C(=O)Nc3ccc(F)cc32)c1C [Sunitinib, sunitinib, reference compound]
